Measurements reported in US10202427B2, “Esculentin-2CHa peptide and analogues thereof” (UNIVERSITY OF ULSTER, priority 2014, dated 2019).

Columns and labels:
NIH Swiss TO mice = experiment: Acute in vivo glucose tolerance study, i.p. glucose with peptide; settings: peptide 75 nmol/kg bw i.p. with glucose; for plasma insulin concentration after intraperitoneal glucose load: mice
Procedure: (§1) All animal experiments were carried out in accordance with the UK Animals (Scientific Procedures) Act 1986 and EC Directive 86/609/EEC for animal experiments. For acute in vivo glucose tolerance studies, age-matched groups (n =6) of overnight fasted male NIH Swiss TO mice received an intraperitoneal injection of either glucose alone (32% w/v) or in combination with synthetic peptides (75 nmol/kg body weight). All solutions were administered in 0.9% NaCl (5 ml/kg body weight). Blood glucose concentrations were measured by Bayer Ascencia Blood glucose meter and plasma insulin concentrations were measured by radioimmunoassay as described by Flatt and Bailey (1981). For chronic in vivo studies, male NIH Swiss TO mice were fed high fat diet or standard diet from 8 weeks of age to 27 weeks of age. Peptides were administered twice daily for 28 days. No adverse effects were observed following administration of the peptide. Parameters including body weight, energy intake, blood glucose and plasma insulin levels were monitored once in three days for 28 days. Body weight and energy intake were measured by weighing mice and food weights respectively. At the end of the study, to determine glucose tolerance, glucose (18 mmol/kg bw) was injected (i.p) to overnight fasted mice and blood glucose levels were monitored at 0, 15, 30, 60 and 90 minutes. To determine insulin sensitivity, insulin (25 U/kg bw) was injected and blood glucose levels were monitored at 0, 15, 30 and 60 minutes. To determine blood glucose profile over a period of 24 h, blood glucose levels were monitored at 0 (before peptide administration), 2, 4, 8 (before peptide administration) and 24 h (before peptide administration). Lean and fat mass were determined by DXA scanning and terminal blood and tissues were collected for ex vivo studies including pancreatic islet morphology, hormone content, lipid profile and islet function.

BRIN-BD11 cells [1] = experiment: Insulin release from BRIN-BD11 cells with known modulators of insulin secretion / extracellular calcium; assay type: cell-based; settings: 16.7 mM glucose; peptide 10^-6 M
Procedure: Cellular mechanism of actions of synthetic peptides was investigated by measuring insulin-release from BRIN-DB11 cells in the presence or absence of synthetic peptides (10^−6M) and known modulators of insulin-release. These additional incubations were carried in (a) medium supplemented with 16.7 mM glucose, (b) calcium-free medium supplemented with 5.6 mM glucose, (c) medium containing 5.6 mM glucose and diazoxide ([…]), (d) medium containing 5.6 mM glucose and verapamil ([…]), and (e) medium supplemented with 16.7 mM glucose and 30 mM KCl. Cells were incubated for 20 min at 37° C. and insulin concentrations in cell supernatants were measured by radioimmunoassay (Flatt and Bailey (1981)).
Without being bound by theory, by incubating BRIN-BD11 cells with the known modulators of insulin release in the absence or presence of the peptides and peptide analogues of the present invention (10^-6M), it was shown that the stimulatory effect of the peptides was inhibited in the presence of verapamil (50 μM) and chelation of extracellular calcium but completely abolished in the presence of diazoxide (200 μM). Moreover, insulin secretion increased with the co-incubation of the peptide with IBMX (200 μM), and tolbutamide (200 μM).

BRIN-BD11 cells [2] = experiment: Membrane potential in BRIN-BD11 cells (fluorimetric); assay type: cell-based; settings: peptide 1 μM, 10 min, vs 5.6 mM glucose alone
Procedure: (§2) Changes in membrane potential and [Ca^2+]i were determined fluorimetrically using monolayers of BRIN-BD11 cells as previously described by Miguel et al (2004) and Abdel-Wahab et al (2007) using a membrane potential assay kit or a Ca^2+ assay kit (Molecular Devices, Sunnyvale, Calif., USA) according to the manufacturer's recommended protocols. Data were acquired using a FlexStation scanning fluorimeter with integrated fluid transfer workstation (Molecular Devices). The cells were incubated at 37° C. for 10 min with synthetic peptides at a concentration of 1 μM. Control incubations in the presence of 5.6 mM glucose only, 30 mM KCl, and 10 mM alanine were also carried out.

BRIN-BD11 cells [3] = experiment: Insulin release from BRIN-BD11 cells (radioimmunoassay); assay type: cell-based
Procedure: BRIN-BD11 cells (Public Health England; Cat. No: 10033003) were grown at 37° C. in an atmosphere of 5% CO2 and 95% air in RPMI-1640 tissue culture medium containing 10% (v/v) fetal calf serum, antibiotics (100 U/ml penicillin, 0.1 mg/ml streptomycin) and 11.1 mM glucose as previously described (Marenah et al, 2004; Conlon et al, 2008; and Mechkarska et al, 2011). The cells were pre-incubated for 40 min at 37° C. in 1.0 ml Krebs Ringer bicarbonate (KRB) buffer, pH 7.4 supplemented with either 5.6 mM or 16.7 mM glucose and 0.1% (w/v) bovine serum albumin (Conlon et al, 2008). Incubations with synthetic peptides (10^−12-3×10^−6 M; n =8) were performed for 20 min at 37° C. using the same buffer. After incubation, aliquots of cell supernatant were removed for insulin radioimmunoassay as described by Flatt and Bailey (1981).

BRIN-BD11 cells [4] = experiment: Intracellular calcium in BRIN-BD11 cells (fluorimetric); assay type: cell-based; settings: peptide 1 μM, 10 min, vs 5.6 mM glucose alone
Procedure: as §2

[5] = test system: Swiss TO mice on high fat diet; experiment: Chronic in vivo study, twice-daily peptide for 28 days in high fat fed mice; settings: for glucose tolerance: end of 28 day study, glucose 18 mmol/kg bw i.p., overnight fasted; for body weight change (Day 0-Day 28) / effect on body weight change relative to Exendin-4: twice daily; for body weight change (Day 0-Day 28) / effect on body weight change relative to Exendin-4 / plasma insulin levels during treatment: 28 days; for body weight change (Day 0-Day 28): vs lean and high fat diet saline control; for blood glucose levels during treatment: monitored once in three days for 28 days
Procedure: as §1, with “No adverse effects were observed following administration of the peptide.” left out
In vivo anti-diabetic effects of Exendin-4, Esculentin-2CHa-(GA30), [D-Arg7, D-Lys15,D-Lys23]-esculentin-2CHa-(GA30), and Lys15-octanoate-Esculentin-2CHa-(GA30) were assessed using Swiss TO mice fed high fat diet, with appropriate controls (saline treated mice on standard diet or high fat diet).

[6] = vs high fat diet saline control

Substance	plasma insulin concentration after intraperitoneal glucose load (NIH Swiss TO mice)	glucose tolerance [5]	body weight change (Day 0-Day 28) [5]	islet area, beta and alpha cell area [5, 6]	effect on body weight change relative to Exendin-4 [5]	plasma insulin area under curve [5, 6]	other results
[Lys20, Lys27]-Esculentin-2CHa-(GA30)	significantly increased						
Esculentin-2CHa	increase plasma insulin concentrations						insulin-release stimulatory effects in the presence of high glucose (BRIN-BD11 cells [1]): retained; membrane depolarization (BRIN-BD11 cells [2]): significantly enhanced membrane depolarization; insulin release from BRIN-BD11 cells (BRIN-BD11 cells [3]; 5.6 mM glucose, peptides 10^-12-3x10^-6 M, 20 min): dose-dependent stimulatory effects; plasma glucose after intraperitoneal glucose load (NIH Swiss TO mice; mice with diet-induced obesity diabetes (so in the source)): significantly reduced plasma glucose concentration; plasma insulin concentration after intraperitoneal glucose load (NIH Swiss TO mice; listed as esculentin-2CHa): significantly increased; intracellular calcium (BRIN-BD11 cells [4]): caused an increase in intracellular calcium
Exendin-4 [reference compound]		improved glucose tolerance, with lowered plasma glucose and insulin levels	significant reduction in body weight	significantly reduced islet area, beta and alpha cell area			
[D-Arg7, D-Lys15,D-Lys23]-esculentin-2CHa-(GA30)		improved glucose tolerance, with lowered plasma glucose and insulin levels	significant reduction in body weight	significantly reduced islet area, beta and alpha cell area	comparable to Exendin-4	markedly lower than high fat diet saline control	blood glucose levels during treatment [5]: reduced blood glucose levels from day 21
[Lys20, Lys27, Ser31, Ser37]-Esculentin-2CHa	significantly increased						acute in vivo effects compared to native peptide (NIH Swiss TO mice): comparable to the effects of native esculentin-CHa
Esculentin-2CHa-(GA30)	significantly increased	improved glucose tolerance, with lowered plasma glucose and insulin levels	significant reduction in body weight	significantly reduced islet area, beta and alpha cell area	comparable to Exendin-4	markedly lower than high fat diet saline control	plasma insulin levels during treatment [5, 6]: reduced plasma insulin levels significantly from day 12; insulin-releasing potency compared to native peptide (BRIN-BD11 cells [3]; at lower concentrations): more potent than the native peptide at lower concentrations; acute in vivo effects compared to native peptide (NIH Swiss TO mice): comparable to the effects of native esculentin-CHa
Lys15-octanoate-Esculentin-2CHa-(GA30)		improved glucose tolerance, with lowered plasma glucose and insulin levels	significant reduction in body weight	significantly reduced islet area, beta and alpha cell area	comparable to Exendin-4	markedly lower than high fat diet saline control	blood glucose levels during treatment [5]: reduced blood glucose levels markedly from day 6; LDL levels [5, 6]: reduced LDL levels; plasma insulin levels during treatment [5, 6]: reduced plasma insulin levels significantly from day 12
